PMC4263554, “A Comparative Study of Impedance versus Optical Label-Free Systems Relative to Labelled Assays in a Predominantly Gi Coupled GPCR (C5aR) Signalling” (Biosensors, 2012)
Several values for one entry are separate records, joined by “and”; a condition that tells them apart may be missing. Identical values can stand only once. Entries after “also recorded” stand apart in the source; their conditions may differ. Non-standard residues stand in square brackets, D forms with d. Residues, ends and D or L forms follow the SMILES beside them. d1Nal = N[C@H](Cc1cccc2ccccc12)C(=O)O; NMeF = CN[C@@H](Cc1ccccc1)C(=O)O; dCha = N[C@H](CC1CCCCC1)C(=O)O

Assays:
[1] = biological target: T1, human C5aR (Homo sapiens, UniProt P21730); test: 125I-C5a competitive receptor binding (SPA) on HMDM; settings: for IC50: 25 pM 125I-C5a, 95% confidence intervals in brackets
T1 construct: host or cells: CHO cells, stably transfected (G418 selection)
T1 sequence (P21730 1-350): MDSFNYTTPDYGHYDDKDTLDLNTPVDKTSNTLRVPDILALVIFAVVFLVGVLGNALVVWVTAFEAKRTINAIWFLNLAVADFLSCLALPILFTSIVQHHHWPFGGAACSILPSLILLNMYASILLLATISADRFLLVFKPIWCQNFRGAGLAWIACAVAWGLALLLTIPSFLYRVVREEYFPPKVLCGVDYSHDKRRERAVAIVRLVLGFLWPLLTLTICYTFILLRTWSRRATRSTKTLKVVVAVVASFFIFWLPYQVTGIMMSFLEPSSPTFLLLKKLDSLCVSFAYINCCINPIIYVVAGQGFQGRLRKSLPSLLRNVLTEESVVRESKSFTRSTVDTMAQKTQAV
Source text: (§1) The scintillation proximity assay (SPA) was used to study ligand binding interactions with the receptor. The basic principle of the assay involved coupling receptor membrane preparations to coated SPA beads. When a radiolabelled ligand, which is able to bind to the receptor coupled onto the SPA bead, interacts with the receptor it will be close enough in proximity to activate the SPA bead. The radiolabel emits radiation that leads to the production of a light signal by activation of the scintillant in the bead. More specifically for our studies, receptor binding studies were performed using Polyvinyltoluene (PVT) scintillation beads, which have wheat germ agglutinin (WGA) covalently attached on the surface (Perkin Elmer). These beads allow for the development of a homogeneous GPCR radioligand binding assay using cellular membranes or whole cells. Briefly, receptor SPA studies were performed in 96-well white isoplates with clear flat bottoms (Perkin Elmer). ^125I-C5a (~25 pM) (specific activity, 2,200 Ci/mmol) (Perkin Elmer) was added to either CHO-C5aR membrane preparations (~2 µg/well) or HMDM (25,000 cells/well). SPA beads (200 µg/well) were then added, followed by the addition of various concentrations of competing ligands (6 pM to 100 µM) in a total volume of 80 µL of buffer A (CHO-C5aR) or B (HMDM) (50 mM Tris-HCl, pH 7.4, 0.5% BSA, and either 5 mM MgCl2, 1 mM CaCl2 (A) or 3 mM MgCl2, 0.1 mM CaCl2 (B)). The final reaction volume per well comprised 20 µL of ligand/buffer, 20 µL of PVT WGA SPA beads, 20 µL of membrane/cells and the assay was initiated by the addition of 20 µL of ^125I-C5a. The plate was then sealed using TopSeal-A (Perkin Elmer) sealing film and incubated with shaking for 1 h at room temperature. Radioligand binding was then assessed for 30 s/well using a 1450 Microbeta scintillation counter (Perkin Elmer). All binding and subsequent assay data, unless stated otherwise, was analysed using GraphPad Prism 5.0c (GraphPAD Software Inc., San Diego, CA, USA).

[2] = biological target: T1, human C5aR; test: 125I-C5a competitive receptor binding (SPA) on CHO-C5aR membranes; settings: for IC50: CHO-C5aR membranes, 25 pM 125I-C5a, 95% confidence intervals in brackets
Protocol: Membranes were prepared from CHO-C5aR cells by modification of a previously described method. Briefly, cells were washed with PBS, pH 7.4, and harvested into buffer (50 mM Tris-HCl, pH 7.4, 5 mM MgCl2, 1 mM CaCl2) before homogenising with a Polytron homogeniser for 3 min on setting 22. Cells were centrifuged at 150× g for 5 min at 4 °C. The supernatant was recovered and centrifuged at 22,000× g for 1 h at 4 °C. Membrane pellets were then resuspended in 0.4 mL of ice-cold assay buffer A (50 mM Tris-HCl, pH 7.4, 5 mM MgCl2, 1 mM CaCl2, 0.5% bovine serum albumin (BSA) (Sigma Aldrich) containing 10% glycerol) with aliquots stored at −80 °C. The protein concentration of the membrane preparations was determined by the Bradford method.
as §1

[3] = biological target: T1, human C5aR; test: Alphascreen SureFire phospho-ERK1/2 assay in HMDM; assay type: cell-based; settings: for EC50: 95% confidence intervals in brackets, read-out: ERK (EC50)
Protocol: (§2) Alphascreen (Amplified Luminescent Proximity Homogeneous Assay Screen) SureFire phospho-ERK1/2 assay was performed according to manufacturers’ instructions (Perkin Elmer). AlphaScreen involves the use of two beads, denoted the donor and acceptor beads. When both beads are bound as a pair to an analyte and the donor bead is excited, a singlet oxygen is released which activates the acceptor bead. As there is a distance constraint here, only beads in close proximity can lead to further reactions that produce the detectable chemiluminescent signal. Briefly, HMDM and CHO-C5aR cells were serum starved and incubated in 96-well tissue culture plates (Nunc) overnight at 60,000 and 50,000 cells/well, respectively. Ligands were prepared in serum-free media at a final DMSO concentration of 1%. Ligands were incubated at room temperature for 10 and 15 min with HMDM and CHO-C5aR, respectively. Media was removed and cells were lysed with lysis buffer for 10 min on a shaker, 4 μL of lysate was transferred to a white 96-well half area plate (Perkin Elmer) and incubated in the presence of 7 μL of reaction mix. The plate was sealed with TopSeal-A, incubated for 2 h at 37 °C and measured on an Envision plate reader (Perkin Elmer). Each data point was performed in triplicate and repeated in at least three separate experiments.

[4] = biological target: T1, human C5aR; test: Alphascreen SureFire phospho-ERK1/2 assay in CHO-C5aR cells; assay type: cell-based; settings: for EC50: 95% confidence intervals in brackets, read-out: ERK (EC50)
Protocol: as §2

[5] = biological target: T1, human C5aR; test: EPIC label-free optical system on HMDM; assay type: cell-based; settings: peak response ~5 min, 95% confidence intervals in brackets
Protocol: (§3) HMDM were seeded, at 50,000 cells/well and CHO-C5aR and CHO-K1 at 7,500 cells/well, into fibronectin-coated cell-based EPIC® plates (Corning) and incubated overnight. Prior to ligand addition, media was exchanged for HBSS (Invitrogen Life Technologies): 20 mM HEPES (Sigma Aldrich) buffer, supplemented with 0.5% DMSO, and allowed to equilibrate at 26 °C for 1 h (HMDM) or 2 h (CHO-C5aR and CHO-K1) within the instrument. Agonists were prepared at a final DMSO concentration of 0.5% in HBSS:HEPES buffer. After ligand addition, measurements were taken continuously for 1–2 h at 26 °C. Peak amplitude response (Figure 2) was measured for data analysis using Corning EPIC® software.

[6] = biological target: T1, human C5aR; test: EPIC label-free optical system on CHO-C5aR cells; assay type: cell-based; settings: peak response ~5 min, 95% confidence intervals in brackets
Protocol: as §3

[7] = biological target: T1, human C5aR; test: xCELLigence label-free impedance system on HMDM; assay type: cell-based; settings: predominant peak ~3.5 min, 95% confidence intervals in brackets
Protocol: (§4) HMDM were seeded at 30,000 cells/well, CHO-C5aR at 5,000 cells/well and CHO-K1 at 7,500 cells/well and incubated overnight in 384-well E-Plates (Roche). Ligand preparation and cell treatment was as described for the EPIC® protocol above. However, during the buffer exchange equilibration steps, cells were kept in the incubator at 37 °C with 5% CO2. HMDM were media exchanged with serum-free IMDM and incubated for 2 h prior to ligand addition with recordings at 37 °C. Ligands for the HMDM experiments were prepared in serum-free media. To ensure consistency with the EPIC® data, time point for data analysis was determined by a number of different factors, mainly maximum response of predominant peak (Figure 2), but point at which the EC50 was stable over this time according to the RTCA software was also used to confirm the time point

[8] = biological target: T1, human C5aR; test: xCELLigence label-free impedance system on CHO-C5aR cells; assay type: cell-based; settings: predominant peak ~3.5 min, 95% confidence intervals in brackets
Protocol: as §4

[9] = tested on: C5aR; parameters: method as in PMID 7930622; settings: neutrophils; cited from earlier work
[10] = tested on: C5aR; settings: different cell types and assay platforms; cited from earlier work

With `CN[C@@H](Cc1ccccc1)C(=O)N[C@@H](CCCCN)C(=O)N1CCC[C@H]1C(=O)N[C@H](CC1CCCCC1)C(=O)N[C@H](CC1CCCCC1)C(=O)N[C@H](CCCNC(=N)N)C(=O)O` [Peptide agonist, NMePhe-Lys-Pro-dCha-dCha-dArg-COOH] (H-[NMeF]KP[dCha][dCha][dR]-OH) the IC50 [1] was 132 nM, the IC50 [2] was 47 nM and the “ERK response relative to the native ligand C5a (efficacy)” value [3] was “characteristics of a partial agonist; also recorded: partial agonist activity”. The EC50 [3] was 120 nM, the “ERK EC50 relative to that of C5a” value [4] was ~ 30 fold and the “ERK response relative to the native ligand C5a (efficacy)” value [4] was “potentiation of the response relative to the native ligand”. For the same molecule, the EC50 [4] was 5 nM, the EC50 [5] was 563 nM and the EC50 [6] was 347 nM. The EC50 [7] was 546 nM, the EC50 [8] was 351 nM and the “Functional character in myeloperoxidase release” value [9] was “full agonist”.

With `CN[C@@H](Cc1ccccc1)C(=O)N[C@@H](CCCCN)C(=O)N1CCC[C@H]1C(=O)N[C@H](CC1CCCCC1)C(=O)N[C@H](Cc1cccc2ccccc12)C(=O)N[C@H](CCCNC(=N)N)C(=O)O` [Peptide partial agonist, NMePhe-Lys-Pro-dCha-dNal-dArg-COOH] (H-[NMeF]KP[dCha][d1Nal][dR]-OH) the “ERK response relative to the native ligand C5a (efficacy)” value [3] was “approximately half of the response relative to C5a” and the “ERK response relative to the native ligand C5a (efficacy)” value [4] was “approximately half of the response relative to C5a”.

For C5a des-Arg, the “Difference in binding IC50 relative to C5a” value [1] is given as ~ 2 fold, the “Difference in binding IC50 relative to C5a” value ([2]; CHO-C5aR) is given as ~ 6 fold and the “Reduction in potency compared to C5a” value [10] is given as 10–1,000 fold.

B1: C5a des-Arg (protein)
chain: TLQKKIEEIAAKYKHSVVKKCCYDGACVNNDETCEQRAARISLGPRCIKAFTECCVVASQLRANISHKDMQLG
modifications: glycosylated (N-glycan at Asn64 of C5a, Asn741 of precursor, by convention); three intrachain disulfides
notes: C5a minus its C-terminal arginine, purchased from Merck
For B1, the IC50 [1] was 2.5 nM, the IC50 [2] was 1.2 nM and 1.23 nM and the EC50 [3] was 0.55 nM. The EC50 [4] was 2 nM, the EC50 [5] was 47 nM and the EC50 [6] was 11 nM. It also gave an EC50 [7] of 20 nM and an EC50 [8] of 44 nM.

B2: C5a: endogenous 74 residue protein ligand of human C5aR, purchased from Sigma Aldrich and Sino Biological Inc (protein, UniProt P01031 678-751, looked up)
C5a anaphylatoxin: TLQKKIEEIAAKYKHSVVKKCCYDGACVNNDETCEQRAARISLGPRCIKAFTECCVVASQLRANISHKDMQLGR
modifications: C5a anaphylatoxin
notes: endogenous 74 residue protein ligand of human C5aR, purchased from Sigma Aldrich and Sino Biological Inc
Molecule B2 has an IC50 [1] of 1.2 nM, an IC50 [2] of 0.2 nM and an EC50 [3] of 0.47 nM. It also gave an EC50 [4] of 0.15 nM, an EC50 [5] of 107 nM and an EC50 [6] of 24 nM. The EC50 [7] was 89 nM and the EC50 [8] was 16 nM.
